Measurements taken from ChEMBL document CHEMBL1139784, “Design and evaluation of a potential mutagen for Hepatitis C virus” (Bioorg Med Chem Lett, 2007).

Tested on: Hepatitis C virus
Experiment: Antiviral activity against HCV by viral replicon assay
Format: functional, organism-based, Hepacivirus hominis

- EC50: 60 µM
Structure (SMILES): CC(C)(C)C(=O)SCCOP(=O)(OCCSC(=O)C(C)(C)C)OC[C@H]1O[C@@H](n2cc3cc[nH]c3nc2=O)[C@H](O)[C@@H]1O
